Assays:
[1] = test system: Pyricularia orzae; test: whole plant or invertebrate; format: in vivo, Pyricularia orzae (rice plant, Chukyo Asahi); conditions: in Oryza sativa, 120 h, read-out: Protective value
[2] = test system: Sphaerotheca fuliginea; test: whole plant or invertebrate; format: in vivo, Sphaerotheca fuliginea (cucumber plant, Suyo); conditions: Podosphaera fuliginea, in Cucumis sativus, 240 h; read-out: Protective value
[3] = test system: Botrytis cinerea; test: Test 9: protective value on cucumber inoculated with Botrytis cinerea; format: in vivo, Botrytis cinerea (cucumber plant, Suyo); conditions: 72 h, 250 ppm, 10 ml sprayed, lesion length three days after inoculation
Procedure: In each unglazed pot having a diameter of 9 cm, cucumber plant (Suyo) was cultured. At one leaf stage, 10 ml. of each solution of each active ingredient having a concentration of 250 ppm was sprayed by a spray gun. After maintaining the pot in a green-house at 24° to 25° C. for one day, a disc (punched agar disc) obtained by culturing Botrytis cinerea on a potato-glucose-agar medium (PDA medium) was put on the leaf of cucumber to inoculate them. Three days after the inoculation, lengths of lesions were measured and each protective value was calculated as Test 2.
In accordance with the test, except the concentration of the active ingredient was decreased, the comparative tests of Compound No. 7 and Reference compound were carried out.

[4] = test system: Rhizoctonia solani; test: whole plant or invertebrate; format: in vivo, Rhizoctonia solani (rice plant, Chukyo Asahi); conditions: in Oryza sativa, 120 h, read-out: Preventive value
[5] = test system: Collectotrichum lagenarium; test: Test 3: protective value on cucumber inoculated with Collectotrichum lagenarium; format: in vivo, Collectotrichum lagenarium (cucumber plant, Suyo); conditions: 500 ppm, 10 ml sprayed; lesions six days after inoculation
Procedure: In each unglazed pot having a diameter of 9 cm, cucumber plant (Suyo) was cultured. At one leaf stage, 10 ml. of each solution of each active ingredient having a concentration of 500 ppm was sprayed by a spray gun. After maintaining the pot in a green-house at 24° to 25° C. for one day, each spore suspension of Collectotrichum lagenarium was sprayed. Six days after the inoculation, number of lesions on the first leaf of seedling was observed. The protective value was calculated as Test 1.

[6] = test system: Plasmopara viticola; test: whole plant or invertebrate; format: in vivo, Plasmopara viticola (cucumber plant, Suyo); conditions: in Cucumis sativus, 144 h, read-out: Protective value
[7] = test system: Tetranychus telarius (L); test: Test 6: mortality of larvae and adults of Tetranychus telarius on kidney bean leaf; format: in vivo; conditions: foliar, 72 h, leaf dipped, wettable powder of Composition No. 5, three days after treatment, read-out: Percent mortality
Procedure: Young seedling of kidney bean treated to cut off leaves except one primordial leaf was transplanted in a cup and about 30 of larvae and adults of Tetranychus telarius (L) were inoculated on the primordial leaf. This was dipped for 10 seconds in each solution obtained by diluting each wettable powder of Composition No. 5 containing each active ingredient with water at the concentration of 800 ppm and was dried in air and was kept in a constant temperature chamber with lighting at 28° C. Three days after the treatment, mortality was measured and each percent mortality was calculated as follows. [formula]

SMILES	pest or weed control at 100 ppm [1] [%]	pest or weed control at 500 ppm [2] [%]	pest or weed control at 250 ppm [3] [%]	pest or weed control at 100 ppm [4] [%]	Protective value [5] [%]	pest or weed control at 500 ppm [6] [%]	mortality at 800 ppm [7] [%]
O=[N+]([O-])c1cc(C(F)(F)F)c(Cl)c([N+](=O)[O-])c1Nc1ccc(Cl)nc1Cl [compound 14]	100	95	95	100	100		
O=[N+]([O-])c1cc(C(F)(F)F)c(Cl)c([N+](=O)[O-])c1Nc1ncc(Br)cc1Cl [compound 20]	100					100	
O=[N+]([O-])c1cc(C(F)(F)F)cc([N+](=O)[O-])c1Nc1nc(Cl)c(Br)cc1C(F)(F)F [compound 26]	100	100	85	100	90	93	100
O=[N+]([O-])c1cc(C(F)(F)F)c(Cl)c([N+](=O)[O-])c1Nc1nc(Cl)c(C(F)(F)F)cc1Br [compound 33]	100	100	100	100		85	
O=[N+]([O-])c1cc(C(F)(F)F)cc([N+](=O)[O-])c1Nc1nc(Cl)c(C(F)(F)F)cc1Cl [compound 34]	100	100	100	100		83	100
CC(=O)N(c1ncc(C(F)(F)F)cc1Cl)c1c([N+](=O)[O-])cc(C(F)(F)F)c(Cl)c1[N+](=O)[O-] [compound 88, N-acetyl-N-(3-chloro-5-trifluoromethyl-2-pyridyl)-2,6-dinitro-3-chloro-4-trifluoromethylaniline]				100		100	

— patent US4331670A (priority 1979, dated 1982)
